Laboratory results: publication PMC5145767 (Neuron, 2016)
Like-named read-outs stand apart in the source and are kept apart here.

Tests used:
DKaiR1D [1] = target: T1, DKaiR1D (Drosophila melanogaster, UniProt Q9VDH5); type: cell-based; settings: for activation of DKaiR1D: Xenopus oocytes, ligands of b17 all applied at 10 mM
[2] = tested on: DKaiR1D ligand-binding domain; set-up: species or system Drosophila melanogaster; settings: ligand 1 mM, trypsin 1:20, 60 min
DGluR1A [3] = target: T2, DGluR1A (Drosophila melanogaster, UniProt Q03445); experiment: DGluR1A coexpressed with Apis Stg1 in Xenopus oocytes; type: cell-based; settings: for activation, % of the response to glutamate recorded in the same cell: agonists 3 mM
[4] = tested on: DGluR1A ligand-binding domain; set-up: species or system Drosophila melanogaster; settings: ligand 1 mM, trypsin 1:20
DGluR1A Y792T [5] = experiment: Proteolysis protection assay of DGluR1A Y792T mutant; type: binding, Drosophila melanogaster; settings: Figure S8B
DGluR1A Y792T [6] = target: DGluR1A Y792T (Drosophila melanogaster, UniProt Q03445, Y792T); experiment: Receptor activity of DGluR1A Y792T mutant; type: cell-based; settings: Figure S8C
DKaiR1D Q604R = DKaiR1D Q604R mutant responses in Xenopus oocytes; type: cell-based, Drosophila melanogaster; settings: 3 μM toxin, 3 mM glutamate, -60 mV
DGluR1A [7] = target: T2, DGluR1A; settings: 1992, cited from earlier work
DKaiR1D [8] = target: T1, DKaiR1D; type: cell-based
GluK2 = settings: ref Plested and Mayer, 2007; cited from earlier work
[9] = 10 mM glutamate, decay fit by sum of two exponentials
[10] = NaCl, NaMeSO3 exchange experiment

T2 sequence (Q03445 28-991): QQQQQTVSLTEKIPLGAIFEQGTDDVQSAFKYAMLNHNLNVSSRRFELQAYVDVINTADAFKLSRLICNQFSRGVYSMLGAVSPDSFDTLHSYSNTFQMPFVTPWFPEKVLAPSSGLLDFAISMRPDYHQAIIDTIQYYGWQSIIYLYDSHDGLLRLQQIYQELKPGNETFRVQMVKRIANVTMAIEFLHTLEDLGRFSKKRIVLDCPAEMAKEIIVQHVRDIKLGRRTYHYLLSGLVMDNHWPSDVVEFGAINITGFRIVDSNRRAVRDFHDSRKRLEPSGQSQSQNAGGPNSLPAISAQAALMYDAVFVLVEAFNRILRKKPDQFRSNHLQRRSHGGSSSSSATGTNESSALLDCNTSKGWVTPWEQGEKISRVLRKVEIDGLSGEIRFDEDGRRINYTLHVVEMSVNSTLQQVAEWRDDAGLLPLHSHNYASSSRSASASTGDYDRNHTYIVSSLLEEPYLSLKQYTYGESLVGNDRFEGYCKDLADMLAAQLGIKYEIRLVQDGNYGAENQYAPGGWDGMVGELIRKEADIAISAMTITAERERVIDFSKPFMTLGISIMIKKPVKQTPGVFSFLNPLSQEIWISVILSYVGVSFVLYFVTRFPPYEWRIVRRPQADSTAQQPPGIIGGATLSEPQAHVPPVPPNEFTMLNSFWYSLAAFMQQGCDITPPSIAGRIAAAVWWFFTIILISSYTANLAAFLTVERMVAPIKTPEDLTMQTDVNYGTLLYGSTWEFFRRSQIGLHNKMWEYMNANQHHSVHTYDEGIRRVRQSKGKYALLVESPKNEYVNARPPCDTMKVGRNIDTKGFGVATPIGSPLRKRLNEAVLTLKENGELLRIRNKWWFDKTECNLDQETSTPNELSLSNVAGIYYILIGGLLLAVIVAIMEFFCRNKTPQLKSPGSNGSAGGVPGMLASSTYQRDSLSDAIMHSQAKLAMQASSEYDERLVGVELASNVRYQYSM
Sequence of DGluR1A Y792T (Drosophila melanogaster, UniProt Q03445, Y792T) (Q03445 28-991 Y792T): as the sequence (Q03445 28-991) above, with Y765T counted along it

CN[C@H](CC(=O)O)C(=O)O [NMDA]
IC50 (DKaiR1D [1]): 900 µM
activation of DKaiR1D (DKaiR1D [1]; -60 mV): but not AMPA, aspartate or NMDA produced activation
block of responses to 10 mM glutamate (DKaiR1D [1]; antagonist 10 mM, -60 mV): 79.2 ± 2.2%
protection from digestion by trypsin [2]: protective
activation of DGluR1A (DGluR1A [3]; agonist 3 mM, -60 mV, Apis Stg1): no activation
protection from digestion by trypsin [4]: but not AMPA, NMDA, aspartate or AP5 were protective

NC(CCCP(=O)(O)O)C(=O)O (centres unmarked) [AP5]
activation of DKaiR1D (DKaiR1D [1]; -60 mV): nor AP5 (Figure S5) produced DKaiR1D activation
protection from digestion by trypsin [2]: protective
protection from digestion by trypsin [4]: but not AMPA, NMDA, aspartate or AP5 were protective

N[C@H](CCCP(=O)(O)O)C(=O)O [D-AP5, 2(R)-amino-5-phosphonopentanoic acid]
block of responses to 1 mM glutamate (DKaiR1D [1]): 22.7 ± 0.8%
block of responses to 10 mM glutamate (DKaiR1D [1]): 16.6 ± 1.0%

N[C@@H](CC(=O)O)C(=O)O [aspartate]
activation of DKaiR1D (DKaiR1D [1]; -60 mV): but not AMPA, aspartate or NMDA produced activation
protection from digestion by trypsin [2]: to a lesser extent aspartate were also protective
activation, % of the response to glutamate recorded in the same cell (DGluR1A [3]; -60 mV, Apis Stg1): 28 ± 8%

Cc1o[nH]c(=O)c1CC(N)C(=O)O (centres unmarked) [AMPA]
activation of DKaiR1D (DKaiR1D [1]; -60 mV): but not AMPA, aspartate or NMDA produced activation
protection from digestion by trypsin [2]: inactive
activation, % of the response to glutamate recorded in the same cell (DGluR1A [3]; -60 mV, Apis Stg1): 40 ± 4%
protection from digestion by trypsin [4]: but not AMPA, NMDA, aspartate or AP5 were protective
binding in proteolysis protection assay (DGluR1A Y792T [5]): but not AMPA, binds strongly
receptor activation (DGluR1A Y792T [6]): but not AMPA, binds strongly and produces full receptor activation

N[C@@H](Cn1oc(=O)[nH]c1=O)C(=O)O [quisqualate, quisqualic acid]
amplitude of responses relative to those to glutamate (DKaiR1D [1]): 0.78 ± 0.03
activation of DKaiR1D (DKaiR1D [1]; -60 mV): produced activation
protection from digestion by trypsin [2]: prevented digestion by trypsin
activation, % of the response to glutamate recorded in the same cell (DGluR1A [3]; -60 mV, Apis Stg1): 41 ± 3%
protection from digestion by trypsin [4]: protective
binding in proteolysis protection assay (DGluR1A Y792T [5]): binds strongly
receptor activation (DGluR1A Y792T [6]): produces full receptor activation

N[C@@H](CCCP(=O)(O)O)C(=O)O [L-AP5]
block of responses to 1 mM glutamate (DKaiR1D [1]; antagonist 10 mM, -60 mV): 35.7 ± 1.4%
block of responses to 10 mM glutamate (DKaiR1D [1]; antagonist 10 mM, -60 mV): 11.7 ± 1.2%

philanthotoxin-433
block of wild type responses to glutamate by extracellular toxin (DKaiR1D [1]; 3 μM toxin, 3 mM glutamate, -60 mV, several minutes for full recovery): blocked
block of Q604R mutant responses to glutamate (DKaiR1D Q604R): did not block
inhibition of DGluR1A (DGluR1A [7]; ref Ultsch et al.): inhibition of DGluR1A by philanthotoxin

N[C@@H](CCC(=O)O)C(=O)O [glutamate]
deactivation rate constant (DKaiR1D [8]; 10 mM glutamate applied for 1 ms): 2523 ± 218 s⁻¹
10–90% rise time (DKaiR1D [8]; 10 mM glutamate applied for 1 ms, outside-out patch): 217 ± 6 μs
desensitization kfast (DKaiR1D [8]; [9]): 1317 ± 105 s⁻¹
desensitization kslow (DKaiR1D [8]; [9]): 107 ± 22 s⁻¹
onset of desensitization kfast (DKaiR1D [8]; CsCl): 1884 ± 99 s⁻¹
onset of desensitization kslow (DKaiR1D [8]; CsCl): 192 ± 28 s⁻¹
onset of desensitization kfast (DKaiR1D [8]; NaCl, CsCl exchange experiment): 1504 ± 90 s⁻¹
onset of desensitization kslow (DKaiR1D [8]; NaCl, CsCl exchange experiment): 165 ± 27 s⁻¹
onset of desensitization kfast (DKaiR1D [8]; [10]): 1970 ± 88 s⁻¹
onset of desensitization kslow (DKaiR1D [8]; [10]): 190 ± 31 s⁻¹
onset of desensitization kfast (DKaiR1D [8]; NaMeSO3): 1985 ± 68 s⁻¹
onset of desensitization kslow (DKaiR1D [8]; NaMeSO3): 236 ± 39 s⁻¹
recovery from desensitization kslow (DKaiR1D [8]; twin pulse protocol, sum of two exponentials): 9.9 s⁻¹
EC50 (DKaiR1D [1]): 10700 ± 500 µM
activation of DKaiR1D (DKaiR1D [1]; -60 mV): produced activation
protection from digestion by trypsin [2]: prevented digestion by trypsin
EC50 (DGluR1A [3]): 136 ± 8 µM
protection from digestion by trypsin [4]: protective
increase of rate of onset of desensitization on exchange of NaMeSO3 for NaCl (GluK2): 7 fold

N#Cc1cc2[nH]c(=O)c(=O)[nH]c2cc1[N+](=O)[O-] [CNQX]
block of responses to 10 mM glutamate (DKaiR1D [1]; antagonist 10 mM, -60 mV): 34.3 ± 3.0%
protection from digestion by trypsin [2]: weak protection
protection from digestion by trypsin [4]: protective

C=C(C)[C@H]1CN[C@H](C(=O)O)[C@H]1CC(=O)O [kainate]
activation of DKaiR1D (DKaiR1D [1]; -60 mV): produced activation
protection from digestion by trypsin [2]: prevented digestion by trypsin
EC50 (DGluR1A [3]): 125 ± 4 µM
protection from digestion by trypsin [4]: protective
EC50 (DGluR1A [7]; read-out: EC50 for activation, prior studies ref Ultsch et al.): 75 µM
